The test has as its target T1, DYRK1B (Homo sapiens, UniProt Q9Y463).
T1 construct: Recombinant DYRK1B expressed in insect cells (Carna Biosciences)
Description: in vitro enzyme assay; MRM mass spectrometry of autophosphorylation sites. Type of test: biochemical.

Where only a bound is given, the exact number is not on record here.

T1 sequence (Q9Y463 whole entry): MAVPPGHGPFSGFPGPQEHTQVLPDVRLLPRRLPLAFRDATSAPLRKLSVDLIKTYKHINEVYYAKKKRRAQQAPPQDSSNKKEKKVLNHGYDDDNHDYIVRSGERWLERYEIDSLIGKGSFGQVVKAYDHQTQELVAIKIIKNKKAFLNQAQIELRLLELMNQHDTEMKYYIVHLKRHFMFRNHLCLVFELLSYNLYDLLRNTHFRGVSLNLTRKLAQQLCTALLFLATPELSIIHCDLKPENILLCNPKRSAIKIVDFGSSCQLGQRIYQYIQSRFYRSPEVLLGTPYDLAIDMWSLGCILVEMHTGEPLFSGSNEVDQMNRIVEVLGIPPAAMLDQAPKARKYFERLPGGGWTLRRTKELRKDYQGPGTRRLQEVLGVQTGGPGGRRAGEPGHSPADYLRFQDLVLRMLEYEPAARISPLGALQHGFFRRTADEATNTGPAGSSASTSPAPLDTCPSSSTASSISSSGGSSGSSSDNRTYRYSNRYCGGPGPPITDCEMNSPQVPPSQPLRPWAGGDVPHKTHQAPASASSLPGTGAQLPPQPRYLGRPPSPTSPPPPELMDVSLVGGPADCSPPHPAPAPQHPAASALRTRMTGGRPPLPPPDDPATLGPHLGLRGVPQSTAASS

Usually IC50 stands for the concentration needed to halve the response being measured. Higher therefore signals weaker potency. Turning to AZ’294, the IC50 is less than 30 nM.

The values are drawn from publication PMC4735261, “Identification of DYRK1B as a substrate of ERK1/2 and characterisation of the kinase activity of DYRK1B mutants from cancer and metabolic syndrome” (Cellular and Molecular Life Sciences: CMLS, 2015).
